Patent US20160375006A1, “USES OF PARALOG-SELECTIVE INHIBITORS OF GSK3 KINASES” (priority 2012, published 2016)
Where two headings read alike, the source gives them in different places.

Assays:
MELK = target: T1, MELK (Homo sapiens, UniProt Q14680); test: Carna kinase panel; format: biochemical
T1 construct: purchased Carna Biosciences
Description: (§1) This was completed utilizing one of two assays depending on the kinase being examined.
(§2) A solution of IMAP binding reagent (IMAP Screening Express kit; Molecular Devices) (60 μL) was added to each well and incubated for 30 minutes.
(§3) A solution of termination buffer (QuickScout Screening assist MSA; Carna Biosciences) (60 μL) was added to each well. The entire reaction mixture was then applied to a LabChip3000 system (Caliper Life Science) and the product and substrate peptide peaks were separated and quantified.

CDK3/CycE1 = CDK3/CycE1 (Homo sapiens, UniProt Q00526)
Description: as §1, §2, §3
(§4) The assay utilized was identical to that of the single point inhibitory activity determination (MSA) but run in dose response. […] A solution of termination buffer (QuickScout Screening assist MSA; Carna Biosciences) (60 μL) was added to each well. The entire reaction mixture was then applied to a LabChip3000 system (Caliper Life Science) and the product and substrate peptide peaks were separated and quantified.

CDK9/CycT1 = CDK9/CycT1 (Homo sapiens, UniProt P50750)
Description: as §1, §2, §3, §4

RAF1_Cascade = RAF1_Cascade (Homo sapiens, UniProt P04049)
Description: as §1, §2, §3

MAP3K3_Cascade = MAP3K3_Cascade (Homo sapiens, UniProt Q99759)
Description: as §1, §3
The assay utilized was identical to that of the single point inhibitory activity determination (MSA) but run in dose response.

JAK3 = JAK3 (Homo sapiens, UniProt P52333)
Description: as §1, §2, §3, §4

PLK2 = PLK2 (Homo sapiens, UniProt Q9NYY3)
Description: as §1, §2, §3, §4

PYK2 = PYK2 (Homo sapiens, UniProt Q14289)
Description: as §1, §2, §3

MAP2K1_Cascade = MAP2K1_Cascade (Homo sapiens, UniProt Q02750)
Description: as §1, §2, §3, §4

PKN1 = PKN1 (Homo sapiens, UniProt Q16512)
Description: as §1, §2, §3, §4

HER4 = HER4 (Homo sapiens, UniProt Q15303)
Description: as §1, §2, §3

PIM2 = PIM2 (Homo sapiens, UniProt Q9P1W9)
Description: as §1, §2, §3, §4

ITK = ITK (Homo sapiens, UniProt Q08881)
Description: as §1, §2, §3, §4

EGFR = EGFR (Homo sapiens, UniProt P00533)
Description: as §1, §2, §3, §4

KIT = KIT (Homo sapiens, UniProt P10721)
Description: as §1, §2, §3

FGFR4(V550L) = FGFR4(V550L) (Homo sapiens, UniProt P22455, V550L)
Description: as §1, §2, §3, §4

PKCα = PKCα (Homo sapiens, UniProt P17252)
Description: as §1, §2, §3, §4

PDHK2 = PDHK2 (Homo sapiens, UniProt Q15119)
Description: as §1, §2, §3, §4

CDK6/CycD3 = CDK6/CycD3 (Homo sapiens, UniProt Q00534)
Description: as §1, §2, §3, §4

MUSK = MUSK (Homo sapiens, UniProt O15146)
Description: as §1, §2, §3, §4

TXK = TXK (Homo sapiens, UniProt P42681)
Description: as §1, §2, §3, §4

SGK3 = SGK3 (Homo sapiens, UniProt Q96BR1)
Description: as §1, §2, §3, §4

CK1γ3 = CK1γ3 (Homo sapiens, UniProt Q9Y6M4)
Description: as §1, §2, §3, §4

TYK2 = TYK2 (Homo sapiens, UniProt P29597)
Description: as §2, §3, §4

MET = MET (Homo sapiens, UniProt P08581)
Description: as §2, §3, §4

JNK2 = JNK2 (Homo sapiens, UniProt P45984)
Description: as §1, §2, §3, §4

IGF1R = IGF1R (Homo sapiens, UniProt P08069)
Description: as §1, §2, §3, §4

MAP2K4_Cascade = MAP2K4_Cascade (Homo sapiens, UniProt P45985)
Description: as §1, §2, §3, §4

CLK2 = CLK2 (Homo sapiens, UniProt P49760)
Description: as §1, §2, §3, §4

AKT2 = AKT2 (Homo sapiens, UniProt P31751)
Description: as §1, §2, §3, §4

NEK4 = NEK4 (Homo sapiens, UniProt P51957)
Description: as §1, §2, §3, §4

MNK1 = MNK1 (Homo sapiens, UniProt Q9BUB5)
Description: as §1, §2, §3, §4

PKCδ = PKCδ (Homo sapiens, UniProt Q05655)
Description: as §1, §2, §3, §4

NEK6 = NEK6 (Homo sapiens, UniProt Q9HC98)
Description: as §1, §2, §3

ROCK2 = ROCK2 (Homo sapiens, UniProt O75116)
Description: as §1, §2, §3

PKD1 = PKD1 (Homo sapiens, UniProt Q15139)
Description: as §1, §2, §3, §4

CDC7/ASK = CDC7/ASK (Homo sapiens, UniProt O00311)
Description: as §1, §2, §3, §4

NDR2 = NDR2 (Homo sapiens, UniProt Q9Y2H1)
Description: as §1, §2, §3, §4

EPHB1 = EPHB1 (Homo sapiens, UniProt P54762)
Description: as §1, §2, §3, §4

CK1γ2 = CK1γ2 (Homo sapiens, UniProt P78368)
Description: as §1, §2, §3, §4

Chain of CDK3/CycE1 (Q00526 whole entry): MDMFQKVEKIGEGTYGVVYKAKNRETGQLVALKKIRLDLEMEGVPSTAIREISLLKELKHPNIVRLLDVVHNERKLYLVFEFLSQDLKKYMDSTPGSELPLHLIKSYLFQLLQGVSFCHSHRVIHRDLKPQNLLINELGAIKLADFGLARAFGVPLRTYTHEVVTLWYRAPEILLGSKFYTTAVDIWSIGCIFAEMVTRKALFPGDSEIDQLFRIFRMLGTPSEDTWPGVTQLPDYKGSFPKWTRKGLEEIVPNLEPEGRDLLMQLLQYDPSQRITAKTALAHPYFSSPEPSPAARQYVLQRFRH
Chain of CDK3/CycE1 (P24864 whole entry partner): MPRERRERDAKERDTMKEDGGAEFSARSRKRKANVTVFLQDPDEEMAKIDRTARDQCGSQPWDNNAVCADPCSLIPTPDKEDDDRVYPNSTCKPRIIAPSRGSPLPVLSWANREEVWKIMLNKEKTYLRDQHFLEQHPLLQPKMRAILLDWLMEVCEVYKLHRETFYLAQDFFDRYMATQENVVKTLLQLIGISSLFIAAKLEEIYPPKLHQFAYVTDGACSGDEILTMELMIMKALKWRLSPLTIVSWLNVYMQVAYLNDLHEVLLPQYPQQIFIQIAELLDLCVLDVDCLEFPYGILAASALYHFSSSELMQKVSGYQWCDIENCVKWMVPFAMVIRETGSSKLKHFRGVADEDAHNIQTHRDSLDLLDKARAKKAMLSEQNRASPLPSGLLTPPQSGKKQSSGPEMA
Chain of CDK6/CycD3 (Q00534 whole entry): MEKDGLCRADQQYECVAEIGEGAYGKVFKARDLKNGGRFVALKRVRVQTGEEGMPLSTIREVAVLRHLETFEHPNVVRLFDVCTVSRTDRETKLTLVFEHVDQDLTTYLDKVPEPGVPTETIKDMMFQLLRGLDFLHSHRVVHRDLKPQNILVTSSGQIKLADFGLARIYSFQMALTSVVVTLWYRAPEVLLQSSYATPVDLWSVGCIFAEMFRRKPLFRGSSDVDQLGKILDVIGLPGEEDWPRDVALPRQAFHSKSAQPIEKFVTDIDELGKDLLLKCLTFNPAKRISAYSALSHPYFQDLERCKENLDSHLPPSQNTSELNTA
Chain of CDK6/CycD3 (P30281 whole entry partner): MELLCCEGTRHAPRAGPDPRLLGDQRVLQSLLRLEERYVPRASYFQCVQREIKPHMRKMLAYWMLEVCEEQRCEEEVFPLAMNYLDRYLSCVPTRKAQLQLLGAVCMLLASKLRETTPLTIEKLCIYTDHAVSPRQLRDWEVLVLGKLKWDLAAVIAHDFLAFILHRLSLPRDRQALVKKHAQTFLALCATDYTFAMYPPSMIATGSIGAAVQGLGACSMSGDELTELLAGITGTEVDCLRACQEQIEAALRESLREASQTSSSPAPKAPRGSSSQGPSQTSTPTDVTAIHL
Chain of PLK2 (Q9NYY3 whole entry): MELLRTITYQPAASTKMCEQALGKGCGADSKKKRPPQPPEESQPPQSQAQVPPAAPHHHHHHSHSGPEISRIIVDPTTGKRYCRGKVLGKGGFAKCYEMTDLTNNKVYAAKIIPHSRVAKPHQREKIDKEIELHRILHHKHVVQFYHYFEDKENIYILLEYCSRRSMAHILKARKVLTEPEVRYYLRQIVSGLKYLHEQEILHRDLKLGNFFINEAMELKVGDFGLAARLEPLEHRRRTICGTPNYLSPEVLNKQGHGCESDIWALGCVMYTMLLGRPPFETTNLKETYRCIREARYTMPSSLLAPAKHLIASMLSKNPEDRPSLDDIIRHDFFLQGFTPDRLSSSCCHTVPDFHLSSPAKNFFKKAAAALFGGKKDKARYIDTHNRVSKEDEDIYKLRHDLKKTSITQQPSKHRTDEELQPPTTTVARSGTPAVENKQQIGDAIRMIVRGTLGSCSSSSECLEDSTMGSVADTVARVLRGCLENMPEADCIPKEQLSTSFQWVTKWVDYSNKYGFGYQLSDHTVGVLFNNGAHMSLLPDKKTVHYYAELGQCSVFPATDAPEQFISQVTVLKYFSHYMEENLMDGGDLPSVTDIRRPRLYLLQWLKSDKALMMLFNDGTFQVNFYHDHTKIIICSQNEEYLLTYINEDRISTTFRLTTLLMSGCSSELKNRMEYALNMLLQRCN
Chain of NEK4 (P51957 whole entry): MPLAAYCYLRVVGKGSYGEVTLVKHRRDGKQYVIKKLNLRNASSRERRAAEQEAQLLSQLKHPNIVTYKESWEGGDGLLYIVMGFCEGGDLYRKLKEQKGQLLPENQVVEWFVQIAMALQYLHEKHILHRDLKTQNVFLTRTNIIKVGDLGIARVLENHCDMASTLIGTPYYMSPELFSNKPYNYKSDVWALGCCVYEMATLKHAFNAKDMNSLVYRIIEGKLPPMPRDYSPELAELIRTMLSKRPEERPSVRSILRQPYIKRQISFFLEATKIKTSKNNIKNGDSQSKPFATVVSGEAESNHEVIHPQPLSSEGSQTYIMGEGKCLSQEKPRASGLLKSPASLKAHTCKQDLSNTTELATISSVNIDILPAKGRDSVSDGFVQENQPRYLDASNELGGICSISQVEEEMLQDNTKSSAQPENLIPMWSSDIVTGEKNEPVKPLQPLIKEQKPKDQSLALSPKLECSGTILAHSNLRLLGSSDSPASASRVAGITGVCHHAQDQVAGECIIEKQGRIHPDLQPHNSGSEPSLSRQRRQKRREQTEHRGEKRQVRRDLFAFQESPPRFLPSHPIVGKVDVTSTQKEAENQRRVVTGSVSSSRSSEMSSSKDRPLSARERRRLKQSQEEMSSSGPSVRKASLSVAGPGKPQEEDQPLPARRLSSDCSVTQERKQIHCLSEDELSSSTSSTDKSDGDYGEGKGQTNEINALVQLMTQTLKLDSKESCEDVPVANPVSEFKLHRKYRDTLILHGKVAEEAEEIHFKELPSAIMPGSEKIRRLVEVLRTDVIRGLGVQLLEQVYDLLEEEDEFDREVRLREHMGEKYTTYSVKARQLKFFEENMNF
Chain of PKCδ (Q05655 whole entry): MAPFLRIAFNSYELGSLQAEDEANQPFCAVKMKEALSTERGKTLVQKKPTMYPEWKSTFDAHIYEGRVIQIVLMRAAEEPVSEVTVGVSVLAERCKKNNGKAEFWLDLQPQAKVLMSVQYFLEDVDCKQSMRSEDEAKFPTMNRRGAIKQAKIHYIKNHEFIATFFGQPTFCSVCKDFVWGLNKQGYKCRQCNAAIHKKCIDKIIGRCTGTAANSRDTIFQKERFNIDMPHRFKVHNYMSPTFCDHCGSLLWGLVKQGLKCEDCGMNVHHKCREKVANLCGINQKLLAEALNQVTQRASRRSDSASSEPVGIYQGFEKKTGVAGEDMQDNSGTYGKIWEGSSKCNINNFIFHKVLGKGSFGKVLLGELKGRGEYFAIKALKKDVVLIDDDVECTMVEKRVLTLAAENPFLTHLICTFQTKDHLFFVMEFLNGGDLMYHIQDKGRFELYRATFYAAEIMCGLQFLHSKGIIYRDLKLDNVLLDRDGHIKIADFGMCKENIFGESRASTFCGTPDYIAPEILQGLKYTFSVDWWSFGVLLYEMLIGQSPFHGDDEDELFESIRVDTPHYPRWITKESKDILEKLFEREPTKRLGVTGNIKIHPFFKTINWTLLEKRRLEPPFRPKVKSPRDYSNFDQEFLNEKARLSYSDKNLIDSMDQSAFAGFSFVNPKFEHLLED
Chain of ROCK2 (O75116 whole entry): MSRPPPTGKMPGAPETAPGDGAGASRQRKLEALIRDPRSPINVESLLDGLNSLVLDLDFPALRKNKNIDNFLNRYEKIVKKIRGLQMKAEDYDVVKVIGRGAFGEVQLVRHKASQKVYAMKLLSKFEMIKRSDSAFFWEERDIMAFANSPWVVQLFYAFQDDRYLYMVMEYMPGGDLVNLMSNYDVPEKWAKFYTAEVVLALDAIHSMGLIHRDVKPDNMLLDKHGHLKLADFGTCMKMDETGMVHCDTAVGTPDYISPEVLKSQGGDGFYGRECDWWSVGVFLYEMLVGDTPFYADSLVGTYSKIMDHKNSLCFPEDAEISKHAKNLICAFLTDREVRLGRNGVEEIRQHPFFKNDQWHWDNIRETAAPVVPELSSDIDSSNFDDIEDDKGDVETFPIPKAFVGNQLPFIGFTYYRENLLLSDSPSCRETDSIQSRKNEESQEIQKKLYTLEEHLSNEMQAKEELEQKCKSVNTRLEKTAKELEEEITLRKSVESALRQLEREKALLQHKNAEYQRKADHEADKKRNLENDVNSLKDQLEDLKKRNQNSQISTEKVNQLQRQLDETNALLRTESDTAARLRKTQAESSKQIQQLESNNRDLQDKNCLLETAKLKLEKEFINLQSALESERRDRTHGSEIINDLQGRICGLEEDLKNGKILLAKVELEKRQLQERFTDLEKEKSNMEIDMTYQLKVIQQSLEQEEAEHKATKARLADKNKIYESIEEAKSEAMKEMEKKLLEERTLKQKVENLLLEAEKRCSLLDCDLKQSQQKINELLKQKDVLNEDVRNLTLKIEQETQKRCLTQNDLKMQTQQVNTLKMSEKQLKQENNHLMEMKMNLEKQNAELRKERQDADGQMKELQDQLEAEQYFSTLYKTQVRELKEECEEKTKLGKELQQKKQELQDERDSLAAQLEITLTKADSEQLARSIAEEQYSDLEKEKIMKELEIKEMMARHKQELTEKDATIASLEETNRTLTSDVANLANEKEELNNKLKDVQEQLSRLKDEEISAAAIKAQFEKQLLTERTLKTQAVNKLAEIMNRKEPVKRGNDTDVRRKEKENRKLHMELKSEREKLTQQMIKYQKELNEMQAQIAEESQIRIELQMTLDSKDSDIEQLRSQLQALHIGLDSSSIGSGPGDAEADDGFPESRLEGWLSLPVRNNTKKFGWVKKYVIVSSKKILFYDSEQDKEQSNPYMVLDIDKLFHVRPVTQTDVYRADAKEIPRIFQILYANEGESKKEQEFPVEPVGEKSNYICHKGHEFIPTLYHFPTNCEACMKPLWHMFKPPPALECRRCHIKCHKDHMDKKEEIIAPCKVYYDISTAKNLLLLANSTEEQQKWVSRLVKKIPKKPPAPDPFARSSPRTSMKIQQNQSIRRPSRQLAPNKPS

## CC[C@@]1(c2ccccc2)C2=C(CC(C)(C)CC2=O)Nc2n[nH]cc21 [BRD0705]
MELK
  % Inhibition at 10 μM: −5.6%
CDK3/CycE1; CDK3/CycE1
  % Inhibition at 10 μM: 52.8%
CDK3/CycE1; read-out: IC50 CDK3/CycE1
  IC50: 9.74 µM
CDK9/CycT1
  % Inhibition at 10 μM: 8.4%
RAF1_Cascade
  % Inhibition at 10 μM: 7.5%
MAP3K3_Cascade
  % Inhibition at 10 μM: 5.6%
JAK3
  % Inhibition at 10 μM: 4.1%
PLK2
  % Inhibition at 10 μM: 4.0%
PYK2
  % Inhibition at 10 μM: 3.5%
MAP2K1_Cascade
  % Inhibition at 10 μM: 3.0%
PKN1
  % Inhibition at 10 μM: 1.8%
HER4
  % Inhibition at 10 μM: 1.3%
PIM2
  % Inhibition at 10 μM: 0.5%
ITK
  % Inhibition at 10 μM: 0.3%
EGFR
  % Inhibition at 10 μM: 0.3%
KIT
  % Inhibition at 10 μM: −0.3%
FGFR4(V550L)
  % Inhibition at 10 μM: −0.4%
PKCα
  % Inhibition at 10 μM: −0.5%
PDHK2
  % Inhibition at 10 μM: −0.5%
CDK6/CycD3; CDK6/CycD3
  % Inhibition at 10 μM: −0.5%
MUSK
  % Inhibition at 10 μM: −0.6%
TXK
  % Inhibition at 10 μM: −1.7%
SGK3
  % Inhibition at 10 μM: −1.8%
CK1γ3
  % Inhibition at 10 μM: −2.1%
TYK2
  % Inhibition at 10 μM: −2.2%
MET
  % Inhibition at 10 μM: −2.4%
JNK2
  % Inhibition at 10 μM: −2.5%
IGF1R
  % Inhibition at 10 μM: −2.5%
MAP2K4_Cascade
  % Inhibition at 10 μM: −3.0%
CLK2
  % Inhibition at 10 μM: −3.0%
AKT2
  % Inhibition at 10 μM: −4.7%
NEK4
  % Inhibition at 10 μM: −5.1%
MNK1
  % Inhibition at 10 μM: −5.2%
PKCδ
  % Inhibition at 10 μM: −5.5%
NEK6
  % Inhibition at 10 μM: −5.7%
ROCK2
  % Inhibition at 10 μM: −5.8%
PKD1
  % Inhibition at 10 μM: −6.8%
CDC7/ASK
  % Inhibition at 10 μM: −7.2%
NDR2
  % Inhibition at 10 μM: −9.9%
EPHB1
  % Inhibition at 10 μM: −9.9%
CK1γ2
  % Inhibition at 10 μM: −11.8%

## CC(C)(C)Cc1[nH]nc2c1[C@](C)(c1ccccc1)C1=C(CC(C)(C)CC1=O)N2 [BRD3731]
MELK; 10 μM
  % Inhibition 10 μM: 39.2%
CDK3/CycE1; CDK3/CycE1
  IC50: > 10 µM
CDK3/CycE1; CDK3/CycE1, 10 μM
  % Inhibition 10 μM: 29.2%
CDK3/CycE1; IC50 CDK3/CycE1 / IC50 GSK3β
  Fold Selectivity: >370 fold
CDK9/CycT1; 10 μM
  % Inhibition 10 μM: 11.3%
RAF1_Cascade; 10 μM
  % Inhibition 10 μM: −6.6%
MAP3K3_Cascade; 10 μM
  % Inhibition 10 μM: 1.8%
JAK3; 10 μM
  % Inhibition 10 μM: 7.8%
PLK2; 10 μM
  % Inhibition 10 μM: 8.5%
PYK2; 10 μM
  % Inhibition 10 μM: 5.3%
MAP2K1_Cascade; 10 μM
  % Inhibition 10 μM: 3.1%
PKN1; 10 μM
  % Inhibition 10 μM: 16.2%
HER4; 10 μM
  % Inhibition 10 μM: 6.5%
PIM2; 10 μM
  % Inhibition 10 μM: 0.8%
ITK; 10 μM
  % Inhibition 10 μM: 2.8%
EGFR; 10 μM
  % Inhibition 10 μM: 10.0%
KIT; 10 μM
  % Inhibition 10 μM: −1.7%
FGFR4(V550L); 10 μM
  % Inhibition 10 μM: 2.9%
PKCα; 10 μM
  % Inhibition 10 μM: 8.1%
PDHK2; 10 μM
  % Inhibition 10 μM: 12.7%
CDK6/CycD3; CDK6/CycD3
  IC50: > 10 µM
CDK6/CycD3; CDK6/CycD3, 10 μM
  % Inhibition 10 μM: 28.3%
CDK6/CycD3; IC50 CDK6/CycD3 / IC50 GSK3β
  Fold Selectivity: >370 fold
MUSK; 10 μM
  % Inhibition 10 μM: −7.9%
TXK; 10 μM
  % Inhibition 10 μM: 1.3%
SGK3; 10 μM
  % Inhibition 10 μM: −5.2%
CK1γ3; 10 μM
  % Inhibition 10 μM: −2.1%
TYK2; 10 μM
  % Inhibition 10 μM: 4.6%
MET; 10 μM
  % Inhibition 10 μM: −0.8%
JNK2; 10 μM
  % Inhibition 10 μM: −3.9%
IGF1R; 10 μM
  % Inhibition 10 μM: −1.5%
MAP2K4_Cascade; 10 μM
  % Inhibition 10 μM: 7.6%
CLK2; 10 μM
  % Inhibition 10 μM: 6.1%
AKT2; 10 μM
  % Inhibition 10 μM: −8.4%
NEK4; 10 μM
  % Inhibition 10 μM: −4.8%
MNK1; 10 μM
  % Inhibition 10 μM: −4.1%
PKCδ; 10 μM
  % Inhibition 10 μM: 10.7%
NEK6; 10 μM
  % Inhibition 10 μM: 0.0%
ROCK2; 10 μM
  % Inhibition 10 μM: −0.5%
PKD1; 10 μM
  % Inhibition 10 μM: 8.9%
CDC7/ASK; 10 μM
  % Inhibition 10 μM: −3.1%
NDR2; 10 μM
  % Inhibition 10 μM: −3.2%
EPHB1; 10 μM
  % Inhibition 10 μM: 2.7%
CK1γ2; 10 μM
  % Inhibition 10 μM: 3.6%
